# Data from PubChem BioAssay (NCI).
#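 Method: 48-hour compound exposure of cells in 96-well plates, five concentrations, linear interpolation of endpoints. GI50 is the concentration that inhibits growth by half. TGI: total growth inhibition.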
# Experiments:
# Assay in all cases: NCI anticancer screen, dose series, 48 h
# HCC-2998 colon = test system: HCC-2998 colon
# HOP-62 NSCLC = test system: HOP-62 NSCLC
# KM12 colon = test system: KM12 colon
# MALME-3M melanoma = test system: MALME-3M melanoma
# NCI/ADR-RES ovarian = test system: NCI/ADR-RES ovarian
# OVCAR-3 ovarian = test system: OVCAR-3 ovarian
# OVCAR-8 ovarian = test system: OVCAR-8 ovarian
# SF-268 CNS = test system: SF-268 CNS
# SNB-19 CNS = test system: SNB-19 CNS
# TK-10 renal = test system: TK-10 renal
SMILES,TGI (HCC-2998 colon) [µM],TGI (HOP-62 NSCLC) [µM],TGI (KM12 colon) [µM],TGI (MALME-3M melanoma) [µM],TGI (NCI/ADR-RES ovarian) [µM],TGI (OVCAR-3 ovarian) [µM],TGI (OVCAR-8 ovarian) [µM],TGI (SF-268 CNS) [µM],TGI (SNB-19 CNS) [µM],TGI (TK-10 renal) [µM],GI50 (HCC-2998 colon) [µM],GI50 (HOP-62 NSCLC) [µM],GI50 (KM12 colon) [µM],GI50 (OVCAR-3 ovarian) [µM],GI50 (SNB-19 CNS) [µM],GI50 (TK-10 renal) [µM],GI50 (OVCAR-8 ovarian) [µM],GI50 (SF-268 CNS) [µM],GI50 (NCI/ADR-RES ovarian) [µM]
COc1cc(Br)cc2cc(-c3cn4ccsc4n3)c(=O)oc12,24,> 100,56.5,> 100,> 100,> 100,> 100,> 100,> 100,> 100,,,,,,,,,
ClCCN1CCC2(CC1)SSC1(CCN(CCCl)CC1)S2,,> 100,> 100,73.6,> 100,63.3,> 100,30.9,> 100,95.5,,,,,,,,,
COC(=O)c1cc(=O)nc2sc3cccc(C)c3n12,,> 100,> 100,70.1,> 100,82.8,49.2,> 100,> 100,> 100,,,,,,,,,
CN1C(=O)C2CCC(=O)N2c2cccnc21 (configuration not stated),> 100,> 100,> 100,> 100,> 100,> 100,> 100,> 100,> 100,> 100,,,,,,,,,
CC(C)CCS(=O)(=O)OCCCCOS(=O)(=O)CCC(C)C,> 100,26.9,> 100,> 100,,29.9,> 100,> 100,> 100,> 100,,,,,,,,,
O=c1c2cc([N+](=O)[O-])cnc2sn1-c1ccc([N+](=O)[O-])cc1,> 100,> 100,62.4,53,99.3,> 100,> 100,67.6,> 100,> 100,,,,,,,,,
CC(=O)NC(Cc1ccc(O)cc1)C(=O)O (configuration not stated),> 100,> 100,> 100,> 100,> 100,> 100,> 100,> 100,> 100,> 100,,,,,,,,,
NC(N)=N/N=C/c1c(-c2ccc(N)cc2)nc2sccn12,,79,> 100,> 100,> 100,67.3,> 100,> 100,69.1,40.9,,,,,,,,,
O=c1[nH]c(Nc2cccc(CC(F)(F)F)c2)nc2nc[nH]c12,> 100,> 100,> 100,> 100,> 100,> 100,> 100,> 100,> 100,> 100,,,,,,,,,
O=c1ccc(-c2ccccc2)n[nH]1,> 100,> 100,> 100,> 100,> 100,> 100,> 100,> 100,> 100,> 100,,,,,,,,,
Nc1nc(Cl)cc(NCC2(CO)CC(=O)C2)n1,> 100,> 100,> 100,> 100,> 100,> 100,> 100,> 100,> 100,> 100,,,,,,,,,
CC1(C)OC(=O)N(c2ccccc2)C12C=Cc1cc([N+](=O)[O-])cc([N+](=O)[O-])c1O2 (configuration not stated),> 100,> 100,> 100,,> 100,> 100,> 100,> 100,> 100,> 100,,,,,,,,,
N#Cc1c(-c2ccccc2)/c(=C\Nc2cccc(C(F)(F)F)c2)c(=O)n2c1nc1ccccc12,> 100,> 100,53.4,> 100,80.4,,51.5,> 100,> 100,> 100,,,,,,,,,
COc1ccc2c(c1)/C(=C/CCN(C)C)c1ccccc1S2,> 100,,> 100,,> 100,> 100,> 100,> 100,> 100,> 100,,,,,,,,,
Cc1ccccc1C(=O)N1CCc2c([nH]c3ccccc23)C1,33.9,> 100,87,81.5,62.7,74.1,> 100,> 100,> 100,80.2,,,,,,,,,
COc1ccc(C2CC(c3c(O)ccc4ccccc34)=NN2C(C)=O)cc1OC (configuration not stated),54.3,94.4,> 100,92.1,> 100,69.6,> 100,> 100,,> 100,,,,,,,,,
O=C(NC(=O)c1ccccc1[N+](=O)[O-])Nc1ccc(Oc2ncc(Br)cn2)c(Cl)c1,32.9,,,0.0537,0.0589,0.0767,0.0736,,,,0.0497,0.0454,< 0.0196,< 0.0158,0.0693,10.5,,,
COc1ccc(-c2cc(O)c3nc4ccccc4n3c2)cc1,,> 100,> 100,> 100,> 100,> 100,> 100,> 100,> 100,> 100,,,,,,,,,
COc1ccc(-c2c(C#N)c(-c3ccc(C)cc3)n(NS(=O)(=O)c3ccc(C)cc3)c(=O)c2C#N)cc1,> 100,> 100,> 100,> 100,> 100,,> 100,> 100,> 100,> 100,,,,,,,,,
CCC(C(=O)O)c1ccc(OC)cc1 (configuration not stated),> 100,> 100,> 100,> 100,,> 100,,> 100,> 100,> 100,,,,,,,,,
CCCCC#C[I+]c1ccccc1,34.4,37.6,27.7,28.2,,30.7,32.5,39.7,30.9,28.6,,,,,,,,,
CCOC(=O)c1csc(NC(=O)CN2CCOCC2)n1,> 100,> 100,> 100,,> 100,> 100,> 100,> 100,> 100,> 100,,,,,,,,,
Cc1cn2c(/C=N/N=C(N)N)c(-c3cccc([N+](=O)[O-])c3)nc2s1,2.83,,2.38,3.94,> 100,2.51,3.7,2.58,,3.92,,,,,,,,,

SMILES,TGI (HCC-2998 colon) [µM],TGI (HOP-62 NSCLC) [µM],TGI (KM12 colon) [µM],TGI (MALME-3M melanoma) [µM],TGI (NCI/ADR-RES ovarian) [µM],TGI (OVCAR-3 ovarian) [µM],TGI (OVCAR-8 ovarian) [µM],TGI (SF-268 CNS) [µM],TGI (SNB-19 CNS) [µM],TGI (TK-10 renal) [µM],GI50 (HCC-2998 colon) [µM],GI50 (HOP-62 NSCLC) [µM],GI50 (KM12 colon) [µM],GI50 (OVCAR-3 ovarian) [µM],GI50 (SNB-19 CNS) [µM],GI50 (TK-10 renal) [µM],GI50 (OVCAR-8 ovarian) [µM],GI50 (SF-268 CNS) [µM],GI50 (NCI/ADR-RES ovarian) [µM]
Cc1cc(Cc2cc(C)c(N)cc2N)c(N)cc1N,,> 100,> 100,,> 100,> 100,> 100,> 100,> 100,> 100,,,,,,,,,
N#CC1(C#N)N[C@@H](c2ccsc2)[C@H]2C(=O)N(c3ccccc3)C(=O)[C@H]21,,> 100,> 100,> 100,> 100,> 100,> 100,> 100,,> 100,,,,,,,,,
COc1ccc(COCCOCc2nc(C#N)c(N)o2)cc1,> 100,> 100,> 100,,> 100,> 100,> 100,> 100,,> 100,,,,,,,,,
O=C(CCN1CCCCC1)C(=Cc1ccccc1)C(=O)CCN1CCCCC1,> 100,> 100,> 100,,> 100,> 100,> 58.1,> 100,> 100,,,,,> 100,,,2.56,5.88,
C=C(C)C(=O)OC1C/C(CO)=C\C(O)C/C(C)=C/C2OC(=O)C(=C)C21 (configuration not stated),,> 100,38.8,39,,59.4,49.5,57.8,> 100,41.2,,,,,,,,,
CCOC(=O)CSc1c(C(=O)OCC)c(=O)n(-c2ccccc2)c(=S)n1-c1ccccc1,,> 100,> 100,> 100,8.6,> 100,> 100,> 100,> 100,> 100,,,,,,,,,
C[C@@H]1CC[C@]2(C(=O)O)CC[C@]3(C)C(=CC[C@@H]4[C@@]5(C)CC[C@H](O)C(C)(C)[C@@H]5CC[C@]43C)[C@@H]2[C@]1(C)O,29.2,,26.7,25.7,32.6,32.6,37.3,34.2,29.7,27.5,,,,,,,,,
O=C1c2ccccc2-c2c1c1ccccc1c(=O)n2CCNCCNCCNCCn1c2c(c3ccccc3c1=O)C(=O)c1ccccc1-2,6.11,2.45,3.22,,> 54.9,4.91,,,> 100,,0.591,0.0483,0.669,1.16,2.35,,,,3.9
S=C1Nc2ccccc2SC1c1ccccc1 (configuration not stated),,55.2,> 100,> 100,> 100,> 100,> 100,> 100,> 100,> 100,,,,,,,,,
CC1(C)N=[N+]([O-])C1(C)C,> 100,,> 100,> 100,> 100,> 100,> 100,> 100,> 100,> 100,,,,,,,,,
Cc1ccc(N=NC(=Nc2ccccc2)c2ccc(N(CCC#N)CCC#N)cc2)cc1,48.6,> 100,> 100,,> 100,75.1,> 100,> 100,> 100,74.9,,,,,,,,,
Cc1n[nH]c(=O)n1/N=C/c1ccc(Cl)cc1,> 100,> 100,> 100,,> 100,> 100,> 100,> 100,> 100,,,,,,,,,,
C1CN(c2nc3c(nnc4nc(N5CCOCC5)sc43)s2)CCO1,,> 100,> 100,> 100,> 100,> 100,> 100,> 100,> 100,> 100,,,,,,,,,
CCCCCCCCCCCCCCNC(=O)CCC(NC(=O)c1ccc(N(C)Cc2cnc3nc(N)nc(N)c3n2)cc1)C(=O)NCCCCCCCCCCCCCC (configuration not stated),19.8,21.2,18,,> 100,> 46,39.8,22.4,> 61.4,> 86.2,,,,,,,,,
CC1CCC(n2c3cnccc3c3cnc(Nc4ccc5c(n4)CCN(C(=O)CO)C5)nc32)CC1 (configuration not stated),,,> 100,,,> 100,,,> 100,,,,0.0812,> 100,0.845,,,,
C=CC1(C)CCC2C(=CCC3C2(C)CC(O)C(O)C3(C)COC2OC(C(=O)O)C(O)C(O)C2O)C1 (configuration not stated) (tested in a mixture with another compound),> 100,> 100,> 100,> 100,,> 100,> 100,> 100,> 100,> 100,,,,,,,,,
Cc1ccc(Cl)c2[nH]c(-c3ccccc3)cc(=O)c12,> 100,> 100,> 100,> 100,> 100,> 100,> 100,79.7,,> 100,,,,,,,,,
NC(=O)NCCCC(NC(=O)OCCCCn1ccc(=O)[nH]c1=O)C(=O)O (configuration not stated),> 100,> 100,> 100,,> 100,> 100,> 100,> 100,> 100,> 100,,,,,,,,,
COCO[C@@H]1C[C@H]2C(=O)Nc3ccccc3C(=O)N2C1,,90.1,> 100,> 100,> 100,,> 100,> 100,> 100,> 100,,,,,,,,,
COc1ccc2cc(NC(=O)N/N=C\c3ccc([N+](=O)[O-])cc3)ccc2c1,> 100,48.5,> 100,> 100,97.2,> 100,87.3,55.4,47.9,,,,,,,,,,
C=C1C(=O)O[C@@H]2C(=O)[C@@H](C)CCC/C(C)=C/CC[C@@]3(C)O[C@@H]3C[C@@H]12,> 100,> 100,> 100,> 100,> 100,> 100,> 100,,> 100,81.6,,,,,,,,,
O=C1CCCc2cc3c(cc21)CC1(Cc2ccccc2C1)C3,39.3,32.6,13.7,70.1,> 100,6.1,43.7,,,> 100,,,,,,,,,
